{"source": "patent US9775895B2", "about": "“HIV therapeutics and methods of making and using same” (priority 2012, dated 2017)", "key": {"HIV-1 BaL": {"test_system": "HIV-1 BaL", "assay_type": "cell-based", "settings": "acute infection, primary human CD4+ T cells; read-out: half maximal inhibitory concentration (IC50) for infection by HIV-1 BaL", "text": "(§1) FIGS. 3A-3H are a series of graphs illustrating that a tyrosine-sulfated peptide containing the V2 α-helix binds to gp120, competes with an anti-CCR5-binding site antibody for HIV-1 virion binding, and blocks HIV-1 entry, infection and fusion. (A) Effect of tyrosine-sulfated V2-loop (pV2α-Tys) and CCR5 N-terminus (pCCR5-Tys) mimetic peptides on HIV-1 virion capture by mAb 412d, a sulfated mAb directed to the CCR5-binding site at the base of V3. Unsulfated homologous peptides (pV2α and pCCR5) were tested in parallel as controls. Infectious viral stocks from HIV-1 BaL were pre-treated with the peptides (each at 50 μM) and then incubated with immunomagnetic beads armed with mAb 412d; beads armed with mAb 2G12 (directed to a glycan-dependent epitope on the gp120 outer domain) were used in parallel as a control. Asterisks denote significant differences with the untreated control (p<0.05 by unpaired Student's t test). (B) Dose-dependent effect of peptides pV2α and pV2α-Tys on cell-free infection by HIV-1 BaL in primary CD4^+ T cells. […] (F) Binding of gp120 to immobilized peptide pV2α as assessed by surface plasmon resonance analysis. […] (H) Comparison between the experimentally determined V3 interaction of the tyrosine sulfated CDRH3 region of mAb 412d and the modeled V3 interaction of a tyrosine sulfated peptide derived from the central region of V2. […]"}, "primary CD4+ T cells": {"test_system": "primary CD4+ T cells", "assay": "Cell viability of primary CD4+ T cells by timed flow cytometry counting", "assay_type": "cell-based, human", "settings": "activated primary CD4+ T cells cultured 7 days", "description": "FIG. 9 is a graph illustrating the effect of V2-derived peptides pV2α and pV2α-Tys on viability of primary CD4^+ T cells. Purified human peripheral blood CD4^+ T cells previously activated in vitro with phytohemagglutinin and IL-2 were treated with each peptide at the indicated concentrations and cultured for 7 days. Cell viability was measured by quantitative counting using timed flow cytometry on a FACSCanto II.\nHIV-1 isolates, infection, entry and cell viability assays. Details about the HIV-1 isolates used in the this study, the infection assay, the entry assay and the cell viability assay have been reported previously (Auerbach et al., Proc Natl Acad Sci USA 109, 9569-9574, 2012)."}, "recombinant soluble CD4": {"molecular_target": "T1, recombinant soluble CD4 (Homo sapiens, UniProt P01730)", "T1 construct": "recombinant soluble CD4 was flown over the chip", "assay": "Surface plasmon resonance, soluble CD4 binding to immobilized biotinylated peptide", "settings": "koff-KD distribution model", "description": "FIG. 12 is a graph illustrating binding of recombinant soluble CD4 to peptide pV2α. The biotinylated peptide was bound to a neutravidin-coated CM3 sensor chip and recombinant soluble CD4 was flown over the chip in the liquid phase. Experimental binding traces were recorded for sCD4 (at the concentration of […]) binding to 235 RU pV2α at a flow rate of […]; best fit traces (red lines) were derived from modeling with koff−KD distribution. (Lower graphs) Residuals of the fit, which has an rmsd of 0.47 RU shown twice on different scales to facilitate their critical inspection.\nBinding of recombinant soluble CD4 to peptide pV2α was evaluated by surface plasmon resonance (FIG. 12). The biotinylated peptide was bound to a neutravidin-coated sensor chip and recombinant soluble CD4 was flown over the chip in the liquid phase. Experimental binding traces were recorded for sCD4 (at the concentration of […]) binding to 235 RU pV2α at a flow rate of […]; best fit traces (red lines) were derived from modeling with koff−KD distribution."}, "[1]": {"molecular_target": "T2, recombinant soluble gp120 (isolate YU2) (Human immunodeficiency virus type 1 group M subtype B, UniProt P35961)", "T2 construct": "recombinant soluble gp120 (isolate YU2)", "assay": "Surface plasmon resonance, gp120 binding to immobilized biotinylated peptide", "parameters": "species or system HIV-1", "text": "Binding of gp120 to immobilized peptide pV2α as assessed by surface plasmon resonance analysis (FIG. 3F). The biotinylated peptide was bound to a neutravidin-coated CM3 sensor chip and recombinant soluble gp120 (isolate YU2) was flown over the chip in the liquid phase. […] Residuals of the fit, which has an RMSD of 0.62 RU shown twice on different scales to facilitate their critical inspection (lower two graphs)."}, "HIV-1 BaL ΔV2 gp160": {"test_system": "HIV-1 BaL ΔV2 gp160", "assay": "Fusion neutralization of HIV-1 BaL ΔV2 with or without NaClO3 pre-treatment", "assay_type": "cell-based", "settings": "30 mM, 72 hrs pre-treatment"}, "HeLa and HEK293 cells": {"test_system": "HeLa and HEK293 cells", "assay": "Viability of cell lines by timed flow cytometry counting", "assay_type": "cell-based", "settings": "30 mM, 72 hrs", "description": "FIGS. 2L-2O illustrate the different efficiency of V2 tyrosine sulfation in recombinant gp120 produced in epithelial cell lines versus virion-associated gp120 produced by primary CD4^+ T cells. (L) Detection of sulfated tyrosines by Western blot in recombinant gp120 produced in CHO cells. (M) Lack of adverse effects of sodium chlorate treatment or TPST2 overexpression on the viability of HeLa and HEK293 cells. The cell lines were treated with 30 mM sodium chlorate (NaClO3) or transfected with a plasmid vector expressing TPST2 and cultured for 72 hrs. Cell viability was measured by quantitative counting using timed flow cytometry on a FACSCanto II and is expressed as percent viable cell recovery. (N) Side-by-side comparison of the extent of tyrosine sulfation detected by Western blot in a reference sulfated mAb (412d), in virion-associated gp120 produced by infected primary human CD4^+ T cells (V-gp120), and in recombinant gp120 produced in HEK293 cells (R-gp120). Identical amounts of mAb 412d and purified gp120 were loaded on the gels. For V-gp120, the protein was immunoprecipitated directly from the infectious viral stocks. The antibodies used for Western blots and the methods used for relative quantification were the same as in (L). […]"}, "[2]": {"test_system": "gp120 tyrosine sulfation (sulfotransferases)", "assay": "Western blot of tyrosine sulfation in recombinant gp120 produced in CHO cells", "assay_type": "cell-based", "settings": "30 mM; recombinant gp120 BaL"}, "[3]": {"test_system": "HIV-1 BaL virions captured by mAb 412d (CCR5-binding site at the base of V3)", "assay": "HIV-1 virion-capture assay with mAb 412d-armed immunomagnetic beads", "settings": "peptides at 50 μM; virions pre-treated with sCD4 5 μg/ml", "text": "as §1"}, "[4]": {"test_system": "CD4-activated gp120 (BaL) binding to mAb 412d", "assay": "Surface plasmon resonance, peptide effect on gp120 binding to immobilized mAb 412d", "parameters": "species or system HIV-1", "settings": "peptide at 166 μM; gp120 BaL 100 nM with sCD4", "description": "(§2) The interaction of the tyrosine-sulfated V2 peptide with the 412d-binding site was further characterized by surface plasmon resonance (SPR).\n(§3) Surface plasmon resonance. Recombinant gp120 from HIV-1 BaL (at 100 nM) obtained from the NIH AIDS Reagent Program was pre-incubated with or without a 2-fold molar excess of two-domain sCD4 (at 200 nM) and passed over a Biacore CM5 sensor surface in the presence or absence of the indicated peptides (at 166 μM) for 2 min at 25 μl/min in HBS supplemented with 3 mM EDTA and 0.005% Tween-20 followed by a 2 min dissociation phase using a Biacore 3000 biosensor (Biacore, Inc.). Surfaces were regenerated after each cycle by a brief injection of 4.5M MgCl2."}, "[5]": {"test_system": "gp120 (BaL) binding to mAb F105", "assay": "Surface plasmon resonance, peptide effect on gp120 binding to control mAb F105", "parameters": "species or system HIV-1", "settings": "peptide at 166 μM; specificity control", "description": "as §2, §3"}}, "note": "Non-standard residues stand in square brackets, D forms with d. Residues, ends and D or L forms follow the SMILES beside them. No end group written: not given here. sY = N[C@@H](Cc1ccc(OS(=O)(=O)O)cc1)C(=O)O", "data": [{"compound": "CC[C@H](C)[C@H](NC(=O)[C@H](CC(=O)O)NC(=O)[C@H](CC(C)C)NC(=O)[C@H](CCC(=O)O)NC(=O)[C@H](Cc1ccc(OS(=O)(=O)O)cc1)NC(=O)[C@H](Cc1ccccc1)NC(=O)[C@H](CC(C)C)NC(=O)[C@H](C)NC(=O)[C@H](Cc1ccc(OS(=O)(=O)O)cc1)NC(=O)[C@H](CCC(=O)O)NC(=O)[C@H](CCCCN)NC(=O)[C@H](CCC(N)=O)NC(=O)[C@@H](NC(=O)[C@@H](N)CCCCN)C(C)C)C(=O)N[C@H](C(=O)N1CCC[C@H]1C(=O)N[C@H](C(=O)N[C@@H](CC(=O)O)C(=O)O)[C@@H](C)CC)C(C)C", "note": "[pV2α-Tys] (H-KVQKE[sY]ALF[sY]ELDIVPID-OH)", "values": [{"measurement": "IC50", "setting": "HIV-1 BaL", "value": 15, "unit": "µM"}, {"measurement": "effect on cell viability", "setting": "primary CD4+ T cells", "value": "no negative effects"}]}, {"compound": "CC[C@H](C)[C@H](NC(=O)[C@H](CC(=O)O)NC(=O)[C@H](CC(C)C)NC(=O)[C@H](CCC(=O)O)NC(=O)[C@H](Cc1ccc(O)cc1)NC(=O)[C@H](Cc1ccccc1)NC(=O)[C@H](CC(C)C)NC(=O)[C@H](C)NC(=O)[C@H](Cc1ccc(O)cc1)NC(=O)[C@H](CCC(=O)O)NC(=O)[C@H](CCCCN)NC(=O)[C@H](CCC(N)=O)NC(=O)[C@@H](NC(=O)[C@@H](N)CCCCN)C(C)C)C(=O)N[C@H](C(=O)N1CCC[C@H]1C(=O)N[C@H](C(=O)N[C@@H](CC(=O)O)C(=O)O)[C@@H](C)CC)C(C)C", "note": "[pV2α] (H-KVQKEYALFYELDIVPID-OH)", "values": [{"measurement": "koff", "setting": "recombinant soluble CD4", "value": 0.013, "unit": "s⁻¹"}, {"measurement": "Kd", "setting": "[1]", "value": 0.0009, "unit": "µM"}, {"measurement": "koff", "setting": "[1]; read-out: koff of gp120 binding to immobilized peptide", "value": "6.4e-05", "unit": "s⁻¹"}, {"measurement": "effect on cell viability", "setting": "primary CD4+ T cells", "value": "no negative effects"}]}, {"compound": "[Na+].[O-][Cl+2]([O-])[O-]", "note": "[sodium chlorate]", "values": [{"measurement": "effect on neutralization sensitivity of HIV-1 BaL ΔV2", "setting": "HIV-1 BaL ΔV2 gp160", "value": "nor did it alter"}, {"measurement": "effect on cell viability", "setting": "HeLa and HEK293 cells", "value": "no negative effects"}, {"measurement": "effect on cell viability", "setting": "HeLa and HEK293 cells; listed as NaClO3", "value": "no adverse effects"}, {"measurement": "effect on gp120 tyrosine sulfation", "setting": "[2]", "value": "totally abrogated gp120 sulfation"}]}, {"compound": "pCCR5-Tys: tyrosine-sulfated peptide derived from the CCR5 N-terminus (DYQVSSPIYDINYYTSE; also: tyrosine-sulfated, sites not given here)", "values": [{"measurement": "inhibition of virion capture by mAb 412d", "setting": "[3]", "value": "specifically inhibited"}, {"measurement": "inhibition of binding of surface-bound mAb 412d to CD4-activated gp120", "setting": "[4]", "value": "blocked"}, {"measurement": "inhibition of gp120 binding to mAb F105", "setting": "[5]", "value": "lack of inhibition"}]}]}
